Results taken from patent US9278950B2, “Bicyclic aromatic carboxamide compounds useful as Pim kinase inhibitors” (Incyte Corporation, priority 2013, dated 2016).

Tests used:
Assay type in all cases: biochemical
[1] = target: T1, Pim-1 (Homo sapiens, UniProt P11309); assay: Pim-1 kinase assay (Pim enzyme assays, Example A); conditions: 1 mM ATP; read-out: Pim1 IC50
T1 construct: purchased Invitrogen PV3503
Method: (§1) Pim-1 and Pim-3 kinase assays-20 μL reactions were run in white 384 well polystyrene plates dotted with 0.8 μL compound/DMSO in the assay buffer (50 mM Tris, pH 7.5, 0.01% Tween-20, 5 mM mgCl2, 0.01% BSA, 5 mM DTT), containing 0.05 μM Biotin-labeled BAD peptide substrate (AnaSpec 62269), 1 mM ATP, and […] (Pim-1, Invitrogen PV3503) or […] (Pim-3, Millipore 14-738) enzyme for 1 h at 25° C. Reactions were stopped by addition of 10 μL STOP Buffer (150 mM Tris, pH=7.5, 150 mM NaCl, 75 mM EDTA, 0.01% Tween-20, 0.3% BSA,) supplemented with Phospho-Bad (Ser 12) Antibody (Cell Signaling 9291) diluted 666-fold, and Streptavidin donor beads (PerkinElmer 6760002) along with Protein-A acceptor beads (PerkinElmer 6760137) at 15 μg/mL each. Supplementation of the STOP buffer with beads and stopping the reactions were done under reduced light. Prior to the stopping reactions STOP buffer with beads was preincubated for 1 h in the dark at room temperature. After stopping the reactions, plates were incubated for 1 h in the dark at room temperature before reading on a PHERAstar FS plate reader (BMG Labtech) under reduced light.

[2] = target: T2, Pim2 (Homo sapiens, UniProt Q9P1W9); assay: Pim-2 kinase assay (Pim enzyme assays, Example A); conditions: 1 mM ATP; read-out: Pim2 IC50
T2 construct: purchased Invitrogen PV3649
Method: Pim-2 kinase assay—20 μL reactions were run in white 384 well polystyrene plates dotted with 0.8 μL compound/DMSO in the assay buffer (50 mM Tris, pH 7.5, 0.01% Tween-20, 5 mM mgCl2, 0.01% BSA, 5 mM DTT), containing 0.05 μM Fluorescein-labeled CREBtide peptide substrate (Invitrogen PV3508), 1 mM ATP, and 1 nM enzyme (Invitrogen PV3649) for 2 h at 25° C. Reactions were stopped by addition of 10 μL TR-FRET Dilution Buffer (Invitrogen PV3574) with 30 mM EDTA and 1.5 nM LanthaScreen Tb-CREB pSer133 antibody (Invitrogen PV3566). After 30 min. incubation at room temperature, plates were read on a PHERAstar FS plate reader (BMG Labtech).

[3] = target: T3, Pim-3 (Homo sapiens, UniProt Q86V86); assay: Pim-3 kinase assay (Pim enzyme assays, Example A); conditions: 1 mM ATP; read-out: Pim3 IC50
T3 construct: purchased Millipore 14-738
Method: as §1

T1 sequence (P11309 whole entry): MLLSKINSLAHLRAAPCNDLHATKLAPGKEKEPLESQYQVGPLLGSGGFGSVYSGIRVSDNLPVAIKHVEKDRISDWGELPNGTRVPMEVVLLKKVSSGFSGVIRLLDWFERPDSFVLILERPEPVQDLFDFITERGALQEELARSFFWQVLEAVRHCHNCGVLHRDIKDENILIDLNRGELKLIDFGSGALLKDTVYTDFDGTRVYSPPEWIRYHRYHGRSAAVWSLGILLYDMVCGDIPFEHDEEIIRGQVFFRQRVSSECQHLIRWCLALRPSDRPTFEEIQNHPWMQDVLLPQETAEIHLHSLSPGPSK
T2 sequence (Q9P1W9 whole entry): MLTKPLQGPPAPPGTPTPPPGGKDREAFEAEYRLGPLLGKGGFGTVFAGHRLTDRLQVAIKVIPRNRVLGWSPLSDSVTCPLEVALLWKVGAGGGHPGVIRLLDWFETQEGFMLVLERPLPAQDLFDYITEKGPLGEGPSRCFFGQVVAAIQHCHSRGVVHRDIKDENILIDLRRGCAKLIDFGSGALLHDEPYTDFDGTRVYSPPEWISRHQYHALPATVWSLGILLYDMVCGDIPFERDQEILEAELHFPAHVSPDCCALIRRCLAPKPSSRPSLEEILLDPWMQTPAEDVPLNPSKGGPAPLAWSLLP

SMILES	IC50 [1] [nM]	IC50 [2] [nM]	IC50 [3] [nM]
COC(=O)N[C@@H]1[C@H](N)CN(c2ccncc2NC(=O)c2nc3cc(C4CCOCC4)ccc3cc2N)C[C@@H]1C [Example 61, Methyl {(3R,4S,5S)-3-amino-1-[3-({[3-amino-7-(tetrahydro-2H-pyran-4-yl)quinolin-2-yl]carbonyl}amino)pyridin-4-yl]-5-methylpiperidin-4-yl}carbamate]	≤ 100	100 to 1000	≤ 100
C[C@H]1CN(c2ccncc2NC(=O)c2nc3cc(N4CCOCC4=O)ccc3cc2N)C[C@@H](N)[C@@H]1O [Example 51, 3-Amino-N-{4-[(3R,4R,5S)-3-amino-4-hydroxy-5-methylpiperidin-1-yl]pyridin-3-yl}-7-(3-oxomorpholin-4-yl)quinoline-2-carboxamide]	≤ 100	1000 to 10000	≤ 100
C[C@H]1CN(c2ccncc2NC(=O)c2nc3cc(N4CCN(C)CC4)ccc3cc2N)C[C@@H](N)[C@@H]1O [Example 38, 3-Amino-N-{4-[(3R,4R,5S)-3-amino-4-hydroxy-5-methylpiperidin-1-yl]pyridin-3-yl}-7-(4-methylpiperazin-1-yl)quinoline-2-carboxamide]	≤ 100	≤ 100	≤ 100
CCc1ccc2cc(N)c(C(=O)Nc3cncc(C)c3N3C[C@@H](N)[C@H](O)[C@@H](C)C3)nc2c1 [Example 28, 3-Amino-N-{4-[(3R,4R,5S)-3-amino-4-hydroxy-5-methylpiperidin-1-yl]-5-methylpyridin-3-yl}-7-ethylquinoline-2-carboxamide]	≤ 100	≤ 100	≤ 100
Nc1cc2ccc(C(O)c3ccccc3)cc2nc1C(=O)Nc1cnccc1N1CCC[C@H](N)C1 (stereo partly drawn) [Example 17, 3-Amino-N-{4-[(3S)-3-aminopiperidin-1-yl]pyridin-3-yl}-7-[hydroxy(phenyl)methyl]quinoline-2-carboxamide]	≤ 100	> 2000	≤ 100
C[C@H]1CN(c2ccncc2NC(=O)c2nc3cc(N4CCN(C)C(=O)C4)ccc3cc2N)C[C@@H](N)[C@H]1n1ccnn1 [Example 52, 3-Amino-N-{4-[(3R,4S,5S)-3-amino-5-methyl-4-(1H-1,2,3-triazol-1-yl)piperidin-1-yl]pyridin-3-yl}-7-(4-methyl-3-oxopiperazin-1-yl)quinoline-2-carboxamide]	≤ 100	> 2000	≤ 100
CCc1ccc2cc(N)c(C(=O)Nc3cnccc3N3CCC[C@H](N)C3)nc2c1 [Example 10, 3-Amino-N-{4-[(3S)-3-aminopiperidin-1-yl]pyridin-3-yl}-7-ethylquinoline-2-carboxamide]	≤ 100	≤ 100	≤ 100
C[C@H]1CN(c2ccncc2NC(=O)c2nc3cc(C4CCN(C)CC4)ccc3cc2N)C[C@@H](N)[C@H]1n1ccnn1 [Example 56, 3-Amino-N-{4-[(3R,4S,5S)-3-amino-5-methyl-4-(1H-1,2,3-triazol-1-yl)piperidin-1-yl]pyridin-3-yl}-7-(1-methylpiperidin-4-yl)quinoline-2-carboxamide]	≤ 100	1000 to 10000	≤ 100
C[C@H]1CN(c2ccncc2NC(=O)c2nc3cc(N4CCOCC4)ccc3cc2N)C[C@@H](N)[C@@H]1O [Example 33, 3-Amino-N-{4-[(3R,4R,5S)-3-amino-4-hydroxy-5-methylpiperidin-1-yl]pyridin-3-yl}-7-morpholin-4-ylquinoline-2-carboxamide]	≤ 100	100 to 1000	≤ 100
C[C@@H]1C[C@H](N)CN(c2ccncc2NC(=O)c2nc3cc(C4CCN(C)CC4)ccc3cc2N)C1 [Example 43, 3-Amino-N-{4-[(3S,5R)-3-amino-5-methylpiperidin-1-yl]pyridin-3-yl}-7-(1-methylpiperidin-4-yl)quinoline-2-carboxamide]	≤ 100	≤ 100	≤ 100
CCc1ccc2cc(N)c(C(=O)Nc3cnccc3N3C[C@@H](N)[C@H](O)[C@@H](C)C3)nc2c1 [Example 29, 3-Amino-N-{4-[(3R,4R,5S)-3-amino-4-hydroxy-5-methylpiperidin-1-yl]pyridin-3-yl}-7-ethylquinoline-2-carboxamide]	≤ 100	≤ 100	≤ 100
C[C@H]1CN(c2ccncc2NC(=O)c2nc3cc(N4CCOCC4)ccc3cc2N)C[C@@H](N)[C@H]1n1ccnn1 [Example 55, 3-Amino-N-{4-[(3R,4S,5S)-3-amino-5-methyl-4-(1H-1,2,3-triazol-1-yl)piperidin-1-yl]pyridin-3-yl}-7-morpholin-4-ylquinoline-2-carboxamide]	≤ 100	> 2000	≤ 100
COC(=O)N[C@@H]1[C@H](N)CN(c2ccncc2NC(=O)c2nc3cc(N4CCN(C)CC4)ccc3cc2N)C[C@@H]1C [Example 60, Methyl {(3R,4S,5S)-3-amino-1-[3-({[3-amino-7-(4-methylpiperazin-1-yl)quinolin-2-yl]carbonyl}amino)pyridin-4-yl]-5-methylpiperidin-4-yl}carbamate]	≤ 100	1000 to 10000	≤ 100
CCc1ccc2cc(N)c(C(=O)Nc3cnccc3N3C[C@@H](N)[C@@H](n4ccnn4)[C@@H](C)C3)nc2c1 [Example 57, 3-Amino-N-{4-[(3R,4S,5S)-3-amino-5-methyl-4-(1H-1,2,3-triazol-1-yl)piperidin-1-yl]pyridin-3-yl}-7-ethylquinoline-2-carboxamide]	≤ 100	100 to 1000	≤ 100
CC(C)(O)c1ccc2cc(N)c(C(=O)Nc3cnccc3N3CCC[C@H](N)C3)nc2c1 [Example 16, 3-Amino-N-{4-[(3S)-3-aminopiperidin-1-yl]pyridin-3-yl}-7-(1-hydroxy-1-methylethyl)quinoline-2-carboxamide]	≤ 100	100 to 1000	≤ 100
N#CCc1ccc2cc(N)c(C(=O)Nc3cnccc3N3CCC[C@H](N)C3)nc2c1 [Example 13, 3-Amino-N-{4-[(3S)-3-aminopiperidin-1-yl]pyridin-3-yl}-7-(cyanomethyl)quinoline-2-carboxamide]	≤ 100	100 to 1000	≤ 100
CN(C)Cc1ccc2cc(N)c(C(=O)Nc3cnccc3N3CCC[C@H](N)C3)nc2c1 [Example 20, 3-Amino-N-{4-[(3S)-3-aminopiperidin-1-yl]pyridin-3-yl}-7-[(dimethylamino)methyl]quinoline-2-carboxamide]	≤ 100	> 2000	≤ 100
COC(=O)N[C@@H]1[C@H](N)CN(c2ccncc2NC(=O)c2nc3cc(C4CCN(C)CC4)ccc3cc2N)C[C@@H]1C [Example 62, Methyl {(3R,4S,5S)-3-amino-1-[3-({[3-amino-7-(1-methylpiperidin-4-yl)quinolin-2-yl]carbonyl}amino)pyridin-4-yl]-5-methylpiperidin-4-yl}carbamate]	≤ 100	1000 to 10000	≤ 100
CCc1ccc2cc(N)c(C(=O)Nc3cnc4c(c3N3CCC[C@H](N)C3)CCC4O)nc2c1 (single isomer, unassigned) [22 isomer 2]	≤ 100	> 2000	≤ 100
